Assay results: PMC10860144, “Exploring the Dispersion and Electrostatic Components in Arene–Arene Interactions between Ligands and G4 DNA to Develop G4-Ligands” (Journal of Medicinal Chemistry, 2024)

Tests used:
Pu24T c-MYC G4 structure = assay: Kd for binding to the Pu24T c-MYC G4 structure (supplementary CSV); set-up: species or system human
Method: (§1) 5′-Cy5 labeled G4 DNAs for this study were purchased from Eurofins Genomics. Stock solutions were prepared in water at 100 μM concentration. The sequences used are listed in Supporting Information Table S1. The G4 DNA sequences were folded in KCl buffer (10 mM phosphate, 100 mM KCl, pH 7.4) by heating at 95 °C for 5 min and then cooling to room temperature. All the experiments were performed in 10 mM phosphate pH 7.4, 100 mM KCl, and 0.05% Tween20. The labeled DNA concentration is held constant at 25 nM, and ligand concentration is varied depending on ligands Kd (16 1:3 dilutions). The samples were loaded into standard MST graded glass capillaries and initial fluorescence intensity of the capillary was measured using Monolith NT.115 (Nano Temper, Germany) with 20% LED power. The change in fluorescence with ligand’s concentrations were plotted in Excel and fitted through nonlinear equation to obtain the binding constants.
The Supporting Information is available free of charge at https://pubs.acs.org/doi/10.1021/acs.jmedchem.3c02127. • Experimental procedures and data; assay data, computational results, and all cell data; NMR (^1H and ^13C) spectra for all compounds (with the exception of a few intermediates); and HPLC UV traces for the final compounds (PDF) • Molecular formula strings and Kd values for binding to the Pu24T c-MYC G4 structure (CSV)

logD at pH 7.4 = type: physicochemical
Method: (§2) Physicochemical properties
(§3) The Physicochemical profiling (LogD, Solubility, Caco-2 cell permeability) was performed as previously
(§4) described.8 Cell viability was performed as described below.
(§5) Table S2. Pharmacokinetic Properties
(§6) Compound Structure logD, Solubility, Rat hepsa Human mics b

Solubility at pH 7.4 = type: physicochemical
Method: as §2, §3, §4, §5, §6

c-MYC Pu22 G4 DNA [1] = assay: Microscale thermophoresis (MST), c-MYC Pu22 G4 DNA; type: binding, human; conditions: Cy5-labeled c-MYC Pu22 G4 DNA 25 nM; pH 7.4, 100 mM KCl; read-out: apparent Kd (MST)
Method: To evaluate the apparent binding affinities (Kd) for the compound series, we next used microscale thermophoresis (MST) with fluorescently labeled c-MYC Pu22 G4 DNA (Table S1). Overall, the measured MST binding results for compounds 2–11 corresponded well with the results from the FRET assay (Figures 2B and S3).
as §1, with “constants. […]” for “constants.”
Microscale Thermophoresis (MST)
5'- Cy5 labelled G4 DNAs for this study were purchased from Eurofins Genomics. Stock solutions were prepared in water at […] concentration. The sequences used are listed in supplementary Table S1. The G4 DNA sequences were folded in KCl buffer (10 mM phosphate, 100 mM KCl, pH 7.4) by heating at 95 °C for 5 min and then cooling to room temperature. All the experiments were performed in 10 mM phosphate pH 7.4, 100 mM KCl, 0.05% Tween20. The labelled DNA concentration is held constant at 25 nM and ligand concentration is varied depending on ligands Kd (sixteen 1:3 dilutions). The samples were loaded into standard MST graded glass capillaries and initial fluorescence intensity of the capillary were measured using Monolith NT.115 (Nano Temper, Germany) with 20% LED power. The change in fluorescence with ligand's concentrations were plotted in Excel and fitted through non-linear equation to obtain the binding constants.
(1 picture or pasted object on this page, not shown here)

[2] = Intrinsic clearance in human microsomes; type: in vitro ADME; conditions: read-out: Human mics: intrinsic clearance in human microsomes
Method: (§7) All compounds (2–11, 25–29) were screened for their logD and solubility at pH 7.4 and for their intrinsic clearance in rat hepatocytes and human microsomes (Table S2). […] Replacing the basic amine side chain to a methyl substituent in the quinazolines (25–29) still retained good solubility (134 to over 1000 μM) but increased clearance in both rat hepatocytes and human microsomes. The logD was low for compounds with a basic amine side chain (2–11) and increased slightly when the amine was replaced with a methyl (25–29). As expected, additional substituents also affected the logD with the chloro-substituents increasing logD the most.
(§8) a Intrinsic clearance in rat hepatocytes ((μL/min)/10^6 cells).b Intrinsic clearance in human microsomes (μL/min/mg). […]

[3] = Intrinsic clearance in rat hepatocytes; type: in vitro ADME
Method: as §7, §8

c-MYC Pu22 G4 DNA [4] = assay: FRET melting assay, c-MYC Pu22 G4 DNA; type: binding, human; conditions: c-MYC Pu22 G4 DNA; 5-40 equiv
Excerpt: The synthesized compounds (2–11) were first analyzed using a Förster resonance energy transfer (FRET) assay (Figure 2A). This assay measures the compounds’ ability to affect the thermal stability of fluorescently labeled DNA, in this case, the c-MYC Pu22 G4 DNA (Table S1). […] The addition of one methyl group to the quinazoline core (3) provides almost twice as strong thermal stability compared to 2. The addition of a second methyl group (4) further increased stabilization, albeit modestly (by 0.5 °C). This slight increase between 3 and 4 could stem from the suboptimal positioning of the added methyl substituent in relation to the guanines on the G4 surface, compared to other positions on the quinazoline ring. […] Furthermore, the methyl-substituted (4) and the methoxy-substituted (6) display a similar G4 stabilization despite the strong electrostatic character of the methoxy substituent compared to the neutral methyl group, which further supports that these interactions are dispersion-driven. This conclusion is further supported by the fact that the replacement of the methoxy group in 6 with chlorine in 7 results in a very similar stabilization as 3, 4, and 6.
Synthetic labeled oligonucleotides for the FRET study were purchased from Eurofins Genomics. Stock solutions were prepared in MQ-water at 100 μM concentration. The sequences used are listed in Supporting Information Table S1. All the oligonucleotides except Pu22 were prefolded in 10 mM lithium cacodylate buffer (pH 7.4), with 10 mM KCl and 90 mM LiCl by heating for 10 min at 95 °C and then cooling in fridge for at least 1 h. Pu22 was folded in 10 mM lithium cacodylate buffer (pH 7.4), with 2 mM KCl and 98 mM LiCl.
The FRET occurs between two dyes (5′-FAM as donor and 3′-TAMRA as acceptor) linked at both extremities of a DNA oligonucleotide. When the oligonucleotides are folded into G4 structures, the donor and acceptor are in proximity, which results in an energy transfer from the donor to the acceptor. This process can be detected by a reduction in the fluorescence emission of the donor. Fluorescence emission of the donor is recovered when the temperature increment triggers the thermal denaturation of the G4 structure. The experiments were performed in a Bio-Rad CFX96 real-time PCR device at temperatures from 10 to 95 °C at 1.5 °C/m heating rate using a 492 nm excitation wavelength and a 516 nm detection wavelength in 96-well plates. […] The stabilization (ΔTm) is calculated from comparison of Tm of the fluorescently labeled oligonucleotide in the presence or absence of the ligand. […]
The fluorescence resonance energy transfer (FRET) occurs between two dyes (5'-FAM as donor and 3'- TAMRA as acceptor) linked at both extremities of a DNA oligonucleotide. […]

Kd (Pu24T c-MYC G4 structure): > 10 µM | logD (logD at pH 7.4): 1.4 | solubility (Solubility at pH 7.4): > 1000 µM | Kd (c-MYC Pu22 G4 DNA [1]): > 10 µM | microsomal CLint [2]: 8 µL/min/mg | Rat heps: intrinsic clearance in rat hepatocytes [3]: 38 (μL/min)/106 cells
Structure (SMILES): Cc1cc(NCCCN(C)C)nc(Nc2cnc3ccccc3n2)n1 [Compound 8, N4-(3-(Dimethylamino)propyl)-6-methyl-N2-(quinoxalin-2-yl)pyrimidine-2,4-diamine]
ability to stabilize the G4 structure (in words) (c-MYC Pu22 G4 DNA [4]): almost no ability to stabilize the G4 structure
